Results on 13 compounds are retold here after ChEMBL document CHEMBL5291721, “A preclinical secondary pharmacology resource illuminates target-adverse drug reaction associations of marketed drugs” (Nat Commun, 2023).

Bounds are passed on as bounds.

One assay concerns the target Histamine H2 receptor (Homo sapiens, UniProt P25021). It is filed as functional, cell-based.
Assay [1] deals with Beta-1 adrenergic receptor (Homo sapiens, UniProt P08588). The format is functional.
The next assay has as its target Histamine H3 receptor (Homo sapiens, UniProt Q9Y5N1).
In assay [2] the target is T1, Amine oxidase [flavin-containing] A (Homo sapiens, UniProt P21397).
T1 sequence (P21397 whole entry): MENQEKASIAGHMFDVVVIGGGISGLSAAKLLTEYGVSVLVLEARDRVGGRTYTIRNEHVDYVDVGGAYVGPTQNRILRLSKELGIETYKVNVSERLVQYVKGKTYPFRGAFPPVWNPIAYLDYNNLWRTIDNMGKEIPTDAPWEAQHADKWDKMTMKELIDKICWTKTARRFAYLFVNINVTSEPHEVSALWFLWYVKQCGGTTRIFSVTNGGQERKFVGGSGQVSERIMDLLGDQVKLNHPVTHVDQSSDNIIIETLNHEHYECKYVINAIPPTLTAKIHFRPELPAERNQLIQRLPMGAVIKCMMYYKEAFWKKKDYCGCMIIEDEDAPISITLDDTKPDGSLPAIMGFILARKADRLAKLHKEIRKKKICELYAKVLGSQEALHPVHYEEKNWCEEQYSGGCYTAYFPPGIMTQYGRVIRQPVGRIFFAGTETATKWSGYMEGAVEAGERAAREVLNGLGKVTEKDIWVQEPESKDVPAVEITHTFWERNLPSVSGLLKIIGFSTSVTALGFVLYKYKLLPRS
The format is functional.

For the next assay, the target named is D(1A) dopamine receptor (Homo sapiens, UniProt P21728). The format is functional, cell-based.
Assay [3] has as its target T2, 5-hydroxytryptamine receptor 2A (Homo sapiens, UniProt P28223). The format is functional, cell-based.
Assay [4] concerns the target T3, 5-hydroxytryptamine receptor 3A (Homo sapiens, UniProt P46098).
T3 sequence (P46098 whole entry): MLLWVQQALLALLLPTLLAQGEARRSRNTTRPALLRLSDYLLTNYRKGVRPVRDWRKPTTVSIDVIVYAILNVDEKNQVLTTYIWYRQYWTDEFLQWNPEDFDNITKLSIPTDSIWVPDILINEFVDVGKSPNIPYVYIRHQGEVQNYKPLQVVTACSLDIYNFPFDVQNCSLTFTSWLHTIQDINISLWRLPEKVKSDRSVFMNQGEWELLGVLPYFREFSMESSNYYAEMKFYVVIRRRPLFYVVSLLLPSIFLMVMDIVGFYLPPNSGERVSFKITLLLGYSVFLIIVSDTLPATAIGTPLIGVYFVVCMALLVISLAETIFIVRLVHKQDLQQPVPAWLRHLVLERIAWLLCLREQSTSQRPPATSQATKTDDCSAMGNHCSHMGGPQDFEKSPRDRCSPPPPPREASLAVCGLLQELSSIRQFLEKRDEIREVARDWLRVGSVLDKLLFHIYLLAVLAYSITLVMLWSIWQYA
It is filed as functional.

For assay [5], the target named is T2, 5-hydroxytryptamine receptor 2A. The format is functional, cell-based. This is another data set of the same source.
For the next assay, the target named is T4, Estrogen receptor (Homo sapiens, UniProt P03372).
T4 sequence (P03372 whole entry): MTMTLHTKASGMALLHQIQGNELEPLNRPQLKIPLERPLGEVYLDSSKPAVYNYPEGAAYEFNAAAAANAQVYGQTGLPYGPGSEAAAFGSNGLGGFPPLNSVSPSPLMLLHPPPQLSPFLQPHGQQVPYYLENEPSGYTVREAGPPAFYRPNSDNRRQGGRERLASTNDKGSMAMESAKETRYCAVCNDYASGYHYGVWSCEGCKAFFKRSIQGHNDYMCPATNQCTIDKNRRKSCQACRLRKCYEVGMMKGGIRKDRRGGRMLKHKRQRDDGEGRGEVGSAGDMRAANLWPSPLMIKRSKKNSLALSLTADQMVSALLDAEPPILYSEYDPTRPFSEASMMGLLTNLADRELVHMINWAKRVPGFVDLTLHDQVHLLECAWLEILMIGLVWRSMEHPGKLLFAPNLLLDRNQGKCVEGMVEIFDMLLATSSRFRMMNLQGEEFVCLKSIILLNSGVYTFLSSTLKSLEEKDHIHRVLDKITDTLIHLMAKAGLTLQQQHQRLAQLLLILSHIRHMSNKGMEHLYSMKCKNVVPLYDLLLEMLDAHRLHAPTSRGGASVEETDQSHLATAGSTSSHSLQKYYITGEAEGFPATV

In assay [6] the target is T5, Cholecystokinin receptor type A (Homo sapiens, UniProt P32238).
T5 sequence (P32238 whole entry): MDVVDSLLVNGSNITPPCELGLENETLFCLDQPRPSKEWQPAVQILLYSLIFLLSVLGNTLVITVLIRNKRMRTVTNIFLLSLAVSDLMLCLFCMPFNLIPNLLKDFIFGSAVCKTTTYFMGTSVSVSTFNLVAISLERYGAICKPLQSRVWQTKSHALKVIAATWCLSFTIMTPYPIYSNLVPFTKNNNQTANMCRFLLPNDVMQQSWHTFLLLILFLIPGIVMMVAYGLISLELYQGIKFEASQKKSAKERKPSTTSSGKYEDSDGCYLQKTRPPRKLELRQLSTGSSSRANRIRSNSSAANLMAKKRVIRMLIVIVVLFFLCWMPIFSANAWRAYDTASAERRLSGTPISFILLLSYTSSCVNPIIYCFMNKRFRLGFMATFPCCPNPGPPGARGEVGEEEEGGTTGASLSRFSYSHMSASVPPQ

Assay [7] has as its target Gamma-aminobutyric acid receptor subunit alpha-1 (Rattus norvegicus, UniProt P62813).
The target of a further assay is Mu-type opioid receptor (Homo sapiens, UniProt P35372). Kind of assay: biochemical. It is filed as functional.
Further: assay procedure not described here.

Chain of Beta-1 adrenergic receptor (P08588 whole entry): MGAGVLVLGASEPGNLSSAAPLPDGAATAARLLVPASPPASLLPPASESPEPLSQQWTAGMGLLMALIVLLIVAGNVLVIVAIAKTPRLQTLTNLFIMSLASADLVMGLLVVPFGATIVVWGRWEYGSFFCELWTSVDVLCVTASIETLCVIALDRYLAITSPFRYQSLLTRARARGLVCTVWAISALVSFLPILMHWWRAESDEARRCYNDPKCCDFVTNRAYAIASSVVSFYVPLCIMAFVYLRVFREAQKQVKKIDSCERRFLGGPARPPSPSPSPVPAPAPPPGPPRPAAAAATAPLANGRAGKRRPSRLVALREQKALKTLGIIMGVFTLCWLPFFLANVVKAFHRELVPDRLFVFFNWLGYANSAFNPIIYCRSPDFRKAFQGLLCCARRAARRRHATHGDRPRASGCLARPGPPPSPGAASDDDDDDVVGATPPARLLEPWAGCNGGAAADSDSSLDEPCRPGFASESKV
Chain of Gamma-aminobutyric acid receptor subunit alpha-1 (P62813 whole entry): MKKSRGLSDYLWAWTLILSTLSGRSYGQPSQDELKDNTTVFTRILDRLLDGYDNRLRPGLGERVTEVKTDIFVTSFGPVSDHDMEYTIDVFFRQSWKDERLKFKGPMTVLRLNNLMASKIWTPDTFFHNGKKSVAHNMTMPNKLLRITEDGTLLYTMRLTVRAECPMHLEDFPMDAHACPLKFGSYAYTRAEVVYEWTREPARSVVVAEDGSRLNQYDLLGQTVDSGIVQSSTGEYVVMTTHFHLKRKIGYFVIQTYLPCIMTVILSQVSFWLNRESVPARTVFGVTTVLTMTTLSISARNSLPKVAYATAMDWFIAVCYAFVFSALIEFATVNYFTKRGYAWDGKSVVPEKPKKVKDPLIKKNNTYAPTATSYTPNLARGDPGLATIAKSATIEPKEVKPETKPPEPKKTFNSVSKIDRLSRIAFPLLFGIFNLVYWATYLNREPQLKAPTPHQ
Chain of Histamine H2 receptor (P25021 whole entry): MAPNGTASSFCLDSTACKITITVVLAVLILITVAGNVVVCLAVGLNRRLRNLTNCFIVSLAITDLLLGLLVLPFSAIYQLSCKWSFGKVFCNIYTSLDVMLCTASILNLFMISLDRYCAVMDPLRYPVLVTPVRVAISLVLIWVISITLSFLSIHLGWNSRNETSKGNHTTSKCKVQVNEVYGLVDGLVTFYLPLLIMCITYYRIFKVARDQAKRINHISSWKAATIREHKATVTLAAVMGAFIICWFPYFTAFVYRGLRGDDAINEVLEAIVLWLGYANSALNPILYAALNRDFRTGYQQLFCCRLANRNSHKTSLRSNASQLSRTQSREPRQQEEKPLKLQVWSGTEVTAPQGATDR
T2 sequence (P28223 whole entry): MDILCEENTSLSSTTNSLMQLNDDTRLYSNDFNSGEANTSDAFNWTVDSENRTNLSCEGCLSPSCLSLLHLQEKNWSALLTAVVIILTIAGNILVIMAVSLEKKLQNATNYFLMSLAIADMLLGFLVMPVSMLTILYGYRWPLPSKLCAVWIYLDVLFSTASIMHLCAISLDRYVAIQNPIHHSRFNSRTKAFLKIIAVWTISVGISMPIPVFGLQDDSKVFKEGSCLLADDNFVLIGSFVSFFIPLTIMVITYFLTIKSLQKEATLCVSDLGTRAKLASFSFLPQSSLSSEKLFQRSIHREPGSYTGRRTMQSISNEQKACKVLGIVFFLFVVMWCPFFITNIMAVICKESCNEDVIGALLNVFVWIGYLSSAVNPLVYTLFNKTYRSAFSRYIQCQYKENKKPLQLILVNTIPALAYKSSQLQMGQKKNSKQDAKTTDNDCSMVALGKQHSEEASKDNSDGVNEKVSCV
Chain of Histamine H3 receptor (Q9Y5N1 whole entry): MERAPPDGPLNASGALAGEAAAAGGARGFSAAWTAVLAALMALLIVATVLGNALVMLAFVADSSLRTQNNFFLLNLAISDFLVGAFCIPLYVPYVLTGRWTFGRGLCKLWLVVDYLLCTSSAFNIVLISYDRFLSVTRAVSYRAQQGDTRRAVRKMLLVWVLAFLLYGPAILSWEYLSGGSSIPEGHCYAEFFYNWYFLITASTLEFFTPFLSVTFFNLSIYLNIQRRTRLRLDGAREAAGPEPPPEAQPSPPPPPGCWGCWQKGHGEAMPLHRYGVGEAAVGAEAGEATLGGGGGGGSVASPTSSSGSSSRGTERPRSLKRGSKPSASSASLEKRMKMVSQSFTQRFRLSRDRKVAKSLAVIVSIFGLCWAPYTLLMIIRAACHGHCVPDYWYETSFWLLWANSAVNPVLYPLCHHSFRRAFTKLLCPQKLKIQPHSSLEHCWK
Chain of D(1A) dopamine receptor (P21728 whole entry): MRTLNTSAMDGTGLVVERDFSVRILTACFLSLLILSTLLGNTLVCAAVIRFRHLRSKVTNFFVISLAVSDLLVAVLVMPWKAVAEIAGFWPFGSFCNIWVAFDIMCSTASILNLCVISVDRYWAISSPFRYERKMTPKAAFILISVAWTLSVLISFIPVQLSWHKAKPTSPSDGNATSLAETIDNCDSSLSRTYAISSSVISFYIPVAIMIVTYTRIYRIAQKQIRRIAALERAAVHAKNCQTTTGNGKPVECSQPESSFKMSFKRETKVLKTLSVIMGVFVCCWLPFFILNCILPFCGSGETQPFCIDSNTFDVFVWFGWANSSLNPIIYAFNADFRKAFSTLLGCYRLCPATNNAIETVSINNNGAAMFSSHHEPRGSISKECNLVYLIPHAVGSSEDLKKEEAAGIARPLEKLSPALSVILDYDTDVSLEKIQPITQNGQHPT
Chain of Mu-type opioid receptor (P35372 whole entry): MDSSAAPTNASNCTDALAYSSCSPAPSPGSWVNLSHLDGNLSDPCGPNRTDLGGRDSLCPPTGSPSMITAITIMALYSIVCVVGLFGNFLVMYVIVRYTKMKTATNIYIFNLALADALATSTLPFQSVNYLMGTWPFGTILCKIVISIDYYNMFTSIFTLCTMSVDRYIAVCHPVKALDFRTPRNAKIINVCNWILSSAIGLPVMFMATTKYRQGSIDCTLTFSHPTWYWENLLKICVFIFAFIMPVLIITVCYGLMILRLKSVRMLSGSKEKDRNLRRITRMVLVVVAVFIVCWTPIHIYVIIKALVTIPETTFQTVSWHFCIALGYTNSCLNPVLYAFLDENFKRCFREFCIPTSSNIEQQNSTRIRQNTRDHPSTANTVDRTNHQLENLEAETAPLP

Usually AC50 stands for the concentration giving half of the maximal activity seen. Turning to `C=CCC1(C(C)CC)C(=O)NC(=O)NC1=O` (stereo not given) [TALBUTAL], the AC50 (on Histamine H2 receptor; in assay [1]; at Histamine H3 receptor; in [2]; on D(1A) dopamine receptor; in [3]) was greater than 10 µM throughout. The concentration at half-maximal activity (AC50) in assay [4] is greater than 30 µM; in assay [5], greater than 10 µM; at Estrogen receptor, greater than 10 µM; in assay [6], greater than 10 µM; in assay [7] it was greater than 10 µM.
For `COc1ccc2c3c1O[C@H]1C(=O)CC[C@@]4(O)[C@@H](C2)N(C)CC[C@]314` [OXYCODONE], the AC50 (at Histamine H2 receptor; in assay [1]; at Histamine H3 receptor; in [2]; on D(1A) dopamine receptor; in assay [3]) was greater than 30 µM in each case. Besides, the AC50 (in assay [4]; in [5]; on Estrogen receptor; in assay [6]; in [7]) was greater than 30 µM each time.
`Cc1ccc(S(=O)(=O)NC(=O)NN2CC3CCCC3C2)cc1` (stereo not given) [GLICLAZIDE]: the half-maximal activity concentration (AC50) at Histamine H2 receptor is greater than 30 µM; in assay [1] it was greater than 10 µM; in assay [2], greater than 30 µM; at D(1A) dopamine receptor, greater than 30 µM; in [4], greater than 30 µM; on Mu-type opioid receptor it was greater than 30 µM. For the same compound, the concentration at half-maximal activity (AC50) (on Estrogen receptor; in assay [6]; in assay [7]) was greater than 10 µM each time.
Consider `CCc1c(Cl)c(O)c(Cl)c(O)c1C(=O)O[C@H]1[C@H](O)[C@H](OC)[C@H](OC/C2=C\C=C\C[C@H](O)/C(C)=C/[C@H](CC)[C@@H](O[C@@H]3OC(C)(C)[C@@H](OC(=O)C(C)C)[C@H](O)[C@@H]3O)/C(C)=C/C(C)=C/C[C@@H]([C@@H](C)O)OC2=O)O[C@@H]1C` [FIDAXOMICIN], for which the half-maximal activity concentration (AC50) was greater than 10 µM in [1]; greater than 10 µM on Histamine H3 receptor; greater than 30 µM in [2]; greater than 30 µM in assay [3]; greater than 10 µM in [4]; 18 µM in assay [5]. Besides, the half-maximal activity concentration (AC50) was greater than 30 µM on Estrogen receptor and greater than 10 µM in assay [7].
For `CC1(C)O[C@@H]2C[C@H]3[C@@H]4CCC5=CC(=O)C=C[C@]5(C)[C@H]4[C@@H](O)C[C@]3(C)[C@]2(C(=O)CO)O1` [DESONIDE], the AC50 is greater than 10 µM on Histamine H2 receptor; greater than 10 µM in [1]; greater than 10 µM in assay [2]; greater than 10 µM at D(1A) dopamine receptor; greater than 10 µM in assay [3]; greater than 30 µM in assay [4]. The AC50 is greater than 10 µM in [5], greater than 30 µM at Estrogen receptor, greater than 10 µM in assay [6] and greater than 10 µM in assay [7].
In the case of `CN1CCC(=C2c3ccccc3CCc3sccc32)CC1` [PIZOTYLINE], the concentration at half-maximal activity (AC50) at Histamine H2 receptor is greater than 10 µM; in assay [1], greater than 10 µM; on Histamine H3 receptor it was greater than 10 µM; in [2] it was greater than 10 µM; at D(1A) dopamine receptor, greater than 30 µM; in assay [3] it was greater than 30 µM. Moreover, the concentration at half-maximal activity (AC50) in assay [4] is 1.4 µM; in assay [5] it was 0.0379 µM; on Estrogen receptor, greater than 30 µM; in assay [6], greater than 30 µM; in assay [7], greater than 10 µM.
Consider `CC(C)Cn1cnc2c(N)nc3ccccc3c21` [IMIQUIMOD], for which the AC50 is greater than 10 µM on Histamine H2 receptor; greater than 10 µM in assay [1]; greater than 10 µM on Histamine H3 receptor; greater than 10 µM in [2]; greater than 10 µM on D(1A) dopamine receptor; greater than 30 µM in assay [4]. For the same compound, the half-maximal activity concentration (AC50) (at Estrogen receptor; in assay [6]; in [7]) was greater than 10 µM each time.
For the compound `O=C(O)C[C@H](O)C[C@H](O)/C=C/c1c(C2CC2)nc2ccccc2c1-c1ccc(F)cc1` [PITAVASTATIN], the AC50 on Histamine H2 receptor was greater than 10 µM; in [1] it was greater than 30 µM; in assay [2] it was greater than 30 µM; at D(1A) dopamine receptor, greater than 10 µM; in [3] it was greater than 30 µM; in assay [4], greater than 30 µM. For the same compound, the concentration at half-maximal activity (AC50) was greater than 30 µM in [5], greater than 10 µM at Estrogen receptor, greater than 10 µM in assay [6] and greater than 10 µM in [7].
Take `CN1C(=O)OC(C)(C)C1=O` [TRIMETHADIONE]: the AC50 on Histamine H2 receptor is greater than 10 µM; in assay [1], greater than 10 µM; at Histamine H3 receptor it was greater than 10 µM; in assay [2], greater than 10 µM; at D(1A) dopamine receptor, greater than 10 µM; in [4], greater than 30 µM. Moreover, the concentration at half-maximal activity (AC50) (at Estrogen receptor; in assay [6]; in [7]) was greater than 10 µM each time.
On to `O=C(O)[C@H](CC(=O)N1C[C@H]2CCCC[C@H]2C1)Cc1ccccc1` [MITIGLINIDE], for which the half-maximal activity concentration (AC50) on Histamine H2 receptor is greater than 10 µM; in assay [1], greater than 10 µM; in [2] it was greater than 10 µM; at D(1A) dopamine receptor, greater than 10 µM; in assay [3], greater than 10 µM; in assay [4], greater than 30 µM. For the same compound, the AC50 (in assay [5]; at Estrogen receptor; in assay [6]; in assay [7]) was greater than 10 µM each time.
Consider `CC[C@@H]1C(=O)OC[C@@H]1Cc1cncn1C` [PILOCARPINE], for which the AC50 is greater than 10 µM on Histamine H2 receptor; greater than 10 µM at Histamine H3 receptor; greater than 10 µM in [2]; greater than 10 µM on D(1A) dopamine receptor; greater than 30 µM in assay [3]; greater than 30 µM in assay [4]. Moreover, the half-maximal activity concentration (AC50) in [5] is greater than 30 µM; at Estrogen receptor, greater than 30 µM; in assay [6] it was greater than 30 µM; in [7] it was greater than 10 µM.
Turning to `CC(C[N+](C)(C)C)OC(N)=O` (stereo not given) [BETHANECHOL], the AC50 (at Histamine H2 receptor; in [1]; at Histamine H3 receptor; in assay [2]; on D(1A) dopamine receptor; in [3]) was greater than 10 µM in each case. Further, the AC50 is greater than 30 µM in assay [4]; greater than 10 µM in assay [5]; greater than 10 µM at Estrogen receptor; greater than 10 µM in assay [6]; greater than 10 µM in assay [7].
Consider `CN1C(=O)C(O)N=C(c2ccccc2)c2cc(Cl)ccc21` (stereo not given) [TEMAZEPAM], for which the AC50 was greater than 10 µM at Histamine H2 receptor; greater than 10 µM in assay [1]; greater than 10 µM on Histamine H3 receptor; greater than 10 µM in assay [2]; greater than 10 µM on D(1A) dopamine receptor; greater than 30 µM in [3]. The half-maximal activity concentration (AC50) was greater than 30 µM in [4]; greater than 30 µM in [5]; greater than 30 µM on Estrogen receptor; greater than 30 µM in [6]; greater than 10 µM in assay [7].
